In data set [1] the test system is BMS cell culture. Put plainly: Nuclear ploidy analysis (Sysmex Ploidy Analyzer) of BMS cell suspension culture after treatment. In kind it is cell-based. The procedure: A BMS cell culture was obtained and maintained in liquid MS media supplemented with 2 mg/L of 2,4-D as described in Green and Phillips (1975). Five to seven days after subculture, the liquid cell culture was placed in a […] gap electroporation cuvette and exposed to EMF application at a frequency of 275 kHz, intensity of 25 V/cm, for a duration of 18 hours with constant shaking at room temperature to disrupt spindle fiber formation and interfere with mitosis. For each treatment, three other tests were also setup from the same culture: (i) 1.25 mM colchicine-treatment, (ii) no treatment culture in an electroporation cuvette, and (iii) no treatment culture that remained in the incubator flask. This duration allows for DNA replication without cell division, thereby causing chromosome doubling.
To measure doubling immediately after treatment, cell culture was prepared for nuclear ploidy analysis first by protoplasting cells for 3 hours in plant protoplast digest/wash buffer (Sigma-Aldrich® D9692) containing 1% cellulase R-10 (GoldBio™ C8001.0001) and 0.1% macerozyme R-10 (GoldBio™ M8002.0001) at 25 C with shaking at 120 rpm. After protoplasting, cells were pelleted by centrifugation at 14000 rpm for 1 min in a tabletop microcentrifuge and protoplast buffer was removed with a pipette. The cells were then resuspended by pipetting in 400 μl of nuclei extraction buffer (Sysmex®, CyStain® UV Precise P Nuclei Extraction Buffer, 05-5002) and mixed with 800 μl of nuclei staining solution (Sysmex®, CyStain® UV Precise P Staining Buffer, 05-5002). The stained nuclei were then passed through a 30 μm filter (Sysmex®, Non-sterile CellTrics® Filter, Green, 04-0042-2316) into the collection cuvette, and the filter rinsed with an additional 800 μl of nuclei staining solution. The cuvette was then loaded into a Sysmex® Ploidy Analyzer (CyFlow® Ploidy Analyzer, equipped with UV LED 365 nm laser) and data obtained for the entirety of the sample. Untreated BMS cell culture typically has 2-3 ploidy peaks, consistent with the majority of cells existing in a stable ploidy state (peak 1), and a minority of cells being in the process of mitosis and containing double the standard ploidy state (peak 2). […] The increase in the proportion of cells represented in the higher level peaks (3 and 4) was associated with a decrease in cells in the lower level peaks (1 and 2), providing direct evidence that field treatment doubled the genomes of cells moving them from peaks 1 and 2 into the category of peaks 3 and 4 (Table 4). To determine whether this change in the relative proportions of cell culture ploidy levels was statistically significant, eight experimental replicates were averaged and the values compared with pairwise T-tests (Table 5 and Table 6).

Data set [2] concerns transgenic tobacco (Nicotiana tabacum) BY-2 cell line. The experiment in a line: Phragmoplast count by confocal microscopy in synchronized GFP-tubulin BY-2 cells. It is filed as cell-based. As to conditions: 1.25 mM colchicine; n=3; * p≤0.05 vs No EMF. The source says: (§1) The transgenic tobacco (Nicotiana tabacum) BY-2 cell line was obtained from RIKEN BioResource Research Center (epd.brd.riken.jp/en/). This cell line expresses green fluorescent protein (“GFP”) fused to tobacco α-tubulin. See F. Kumagai, et al., Fate of nascent microtubules organized at the M/G1 interface, as visualized by synchronized tobacco BY02 cells stably expressing GFP-tubulin: Time-sequence observations of the reorganization of cortical microtubules in living plant cells, PLANT & CELL PHYS. 42:723-732 (2001). When viewed with a fluorescence microscope, the microtubules fluoresce and enable visualization of microtubule polymerization, including, e.g., spindle fiber and phragmoplast formation during cell division. The BY-GT16 cells were grown in modified LS media supplemented with 0.2 mg/L of 2,4-D. The cells were maintained in the dark at 27° C. on a rotary shaker at 130 rpm, with sub-culturing at 7-day intervals.
To aid visualization and increase the likelihood of observing a plurality of cells undergoing mitosis after S-phase, the BY-GT16 cells were synchronized. […]
After washing the aphidicolin from the cells, the cells were permitted to restart normal cellular processes for six hours (i.e., the cells were “released”). […] The oscilloscope monitored the sinusoidal variation of the EMF applied to the cells in the cuvette as a function of time. […]

Data set [3] relates to haploid, diploid and interspecific hybrid embryos and seedlings. The note with it: cited from earlier work.
Data set [4] concerns transgenic tobacco (Nicotiana tabacum) BY-2 cell line. Put plainly: Cell viability by trypan blue staining in synchronized BY-2 cells. It is filed as cell-based.
From the text: as §1
To aid visualization and increase the likelihood of observing a plurality of cells undergoing mitosis after S-phase, the BY-GT16 cells were synchronized. To do so, […] of 7-day old suspension culture was transferred into 14 mL of BY-2 media (recipes below in Example 4). To the new suspension, 14 μL aphidicolin (5 mg/mL) was added, and the suspension was incubated in the dark for 24 hours at 25° C. on a rotary shaker at 130 rpm. After incubation, the aphidicolin was removed by washing ten times with 16 mL of sterile BY-2 medium. At the end of the last wash, the cells were resuspended in 16 mL of fresh BY-2 medium and returned the washed suspension to the incubator. BY-2 cells reach maximum mitotic index after approximately eight hours. Generally, peak numbers of cells with phragmoplasts were observed approximately eleven hours after washing. Thus, the plurality of cells was reasonably synchronized.
After washing the aphidicolin from the cells, the cells were permitted to restart normal cellular processes for six hours (i.e., the cells were “released”). Next, the population of synchronized cells were prepared for placement in an EMF apparatus (FIG. 1). At that point, 775 μL of cell culture was placed into a 4 mm electroporation cuvette, which was held in place in the cavity of the apparatus using a plastic frame. The plastic frame was designed to fit inside a cavity of the apparatus and was created by 3D-printing. The frame was designed to be placed inside the cavity such that the electrodes (210 and 220) from the Amplifier (200) are able to stably contact the rigid surfaces of the metal plates (Terminals 310 and 320) defining the Cavity (300), which in this instance was configured to hold the cuvette (FIG. 1). The Function Generator (100) was connected to the amplifier and was used to control the frequency (kHz) and field intensity (effective V/cm in the cuvette) of the applied EMF. An optional Oscilloscope (400) was also attached to the positive electrode (210) at the point of contact with the metal plate (310) of the Cavity (FIG. 2). The oscilloscope monitored the sinusoidal variation of the EMF applied to the cells in the cuvette as a function of time.
For the time period between Hours 7 and 11 after mitotic release of the cells, the EMF was applied to the cells in the cuvette (for a total duration of four hours). After application, the Function Generator (100) was turned off and the cells were removed for viability staining and phragmoplast observation. The remaining cells were fixed in paraformaldehyde for later observation.
To determine at what frequency or range of frequencies the BY-2 mitotic structures would be susceptible to the effects of the EMF, frequency tests were conducted in pairs with controls. The controls included a “No Treatment” control where no EMF was applied over the course of several sessions (see “Date of Experiment” column). Since EMF is generated via application of an AC voltage, in some tests, the controls included the application of a corresponding DC voltage. […]

Where [5] appears, read: 1.25 mM colchicine, 18 hours, single replicates.
[6] abbreviates: 1.25 mM colchicine, trypan blue.

“And” between values parts separate entries of the source, which are not always exact repeats. Identical values can stand only once.

`COc1cc2c(c(OC)c1OC)-c1ccc(OC)c(=O)cc1[C@@H](NC(C)=O)CC2` [Colchicine, colchicine]: in data set [1] (setting [5]), the “Proportion of Cells in Each Ploidy Peak (%): Peak 1” value was 38.88% and 11.65% and 11.29% and 27.74% and 26.54% and 19.87% and 35.15% and 33.87%; the “Proportion of Cells in Each Ploidy Peak (%): Peak 2” value was 57.77% and 59.12% and 74.64% and 57.21% and 57.50% and 58.10% and 54.88% and 53.99%; the “Proportion of Cells in Each Ploidy Peak (%): Peak 3” value was 3.35% and 26.77% and 13.43% and 13.56% and 15.34% and 20.30% and 8.73% and 11.35%; the “Proportion of Cells in Each Ploidy Peak (%): Peak 4” value is 0.00% and 2.46% and 0.64% and 1.49% and 0.62% and 1.72% and 1.23% and 0.79%. Besides, in data set [1] (average of 8 replicates), the “Avg Peak1%” value was 25.62%, the “Avg Peak2%” value is recorded as 59.15%, the “Avg Peak3%” value is reported as 14.10% and the “Avg Peak4%” value stood at 1.12%. In addition, in data set [1] (pairwise T-tests, 8 replicates), the “Cells of higher genome content compared to untreated controls (flask or cuvette)” value is “significantly more cells of higher genome content”. In addition, the “Average Phragmoplasts (Normalized)” value in data set [2] is given as 1.0*. Further, the “survival rate after chromosome doubling with colchicine” value in data set [3] is on record as “less than 100%”. For the same compound, in data set [3] (usually), the “fertility after chromosome doubling with colchicine” value is recorded as “less than 50%”. The “Loss of viability compared to EMF treated cells” value in data set [4] (1.25 mM colchicine vs 250 and 275 kHz EMF) was “higher loss of viability”. In addition, the “Average Viability (Normalized)” value in data set [4] (1.25 mM colchicine, n=3) is listed as 101%. For the same compound, the “Viability (Normalized to Control)” value in data set [4] (1.25 mM colchicine, normalized to no treatment control) is 112.4% and 94.1% and 95.4%. Besides, in data set [4] (setting [6]), the “Dead Cells (Per 3 vertical columns)” value was 87 and 112 and 120; the “Live Cells (Per 3 vertical columns)” value was 732 and 740 and 766; the “Viability (% Live)” value is 89.4% and 86.9% and 86.5%.

The values are drawn from patent publication US12628750B2, “Plant cell chromosome doubling by application of electromagnetic field” (SYNGENTA CROP PROTECTION AG, priority 2020, dated 2026).
